Experimental data taken from paper PMC4233179 (Molecular cancer research : MCR, 2014).

Biological target: T1, NEDD4-1 (Homo sapiens, UniProt P46934)
T1 sequence (P46934 1-1319): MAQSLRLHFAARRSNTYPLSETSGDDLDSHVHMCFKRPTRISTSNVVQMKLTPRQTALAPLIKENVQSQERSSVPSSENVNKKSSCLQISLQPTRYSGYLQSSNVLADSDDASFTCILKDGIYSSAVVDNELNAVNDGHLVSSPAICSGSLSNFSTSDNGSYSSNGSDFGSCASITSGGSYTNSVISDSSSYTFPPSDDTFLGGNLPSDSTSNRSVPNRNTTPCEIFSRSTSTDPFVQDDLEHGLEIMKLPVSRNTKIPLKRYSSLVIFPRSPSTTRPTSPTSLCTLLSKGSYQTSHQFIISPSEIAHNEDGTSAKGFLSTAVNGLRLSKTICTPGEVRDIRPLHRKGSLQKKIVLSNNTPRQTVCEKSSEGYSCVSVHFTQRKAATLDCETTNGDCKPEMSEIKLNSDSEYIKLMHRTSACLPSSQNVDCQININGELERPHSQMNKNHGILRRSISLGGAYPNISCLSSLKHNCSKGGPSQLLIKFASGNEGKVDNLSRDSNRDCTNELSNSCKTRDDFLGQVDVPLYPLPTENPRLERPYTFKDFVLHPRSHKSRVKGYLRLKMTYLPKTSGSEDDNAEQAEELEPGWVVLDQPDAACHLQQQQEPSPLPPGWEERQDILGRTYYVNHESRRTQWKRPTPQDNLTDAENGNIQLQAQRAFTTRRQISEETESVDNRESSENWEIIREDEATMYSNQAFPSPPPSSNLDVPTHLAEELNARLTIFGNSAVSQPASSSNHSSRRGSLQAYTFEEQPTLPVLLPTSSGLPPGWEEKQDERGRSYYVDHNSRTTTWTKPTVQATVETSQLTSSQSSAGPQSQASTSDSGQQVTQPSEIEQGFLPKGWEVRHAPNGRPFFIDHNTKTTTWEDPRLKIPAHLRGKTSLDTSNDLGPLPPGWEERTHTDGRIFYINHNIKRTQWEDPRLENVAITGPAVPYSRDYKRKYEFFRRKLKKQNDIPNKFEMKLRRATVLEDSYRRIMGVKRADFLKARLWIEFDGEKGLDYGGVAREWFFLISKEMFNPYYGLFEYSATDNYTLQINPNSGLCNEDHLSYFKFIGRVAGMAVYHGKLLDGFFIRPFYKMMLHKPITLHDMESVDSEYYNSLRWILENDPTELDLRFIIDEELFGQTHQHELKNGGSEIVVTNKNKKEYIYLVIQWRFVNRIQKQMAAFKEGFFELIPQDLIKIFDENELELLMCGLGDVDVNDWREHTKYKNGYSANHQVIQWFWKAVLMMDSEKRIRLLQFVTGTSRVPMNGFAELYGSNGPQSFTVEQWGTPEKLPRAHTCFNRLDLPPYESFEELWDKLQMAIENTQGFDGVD
Assay: isothermal titration calorimetry
Format: binding

Question: For `OCc1c[nH]c2ccccc12` [I3C, indole-3-carbinol], which Kd is on record?
Answer: ~88.1 µM
